Measured values reported in US9241923B2, “Methods for promoting neuronal development and/or health” (Mead Johnson Nutrition Company, priority 2013, dated 2016).

Tested on: human adipose derived stem cells (hADSCs)
Assay: neurogenesis / neuronal differentiation of hADSCs judged by neuronal morphology under phase contrast microscopy
Assay type: cell-based
Method: hADSCs were purchased from Invitrogen, also known as Life Technologies, of Carlsbad, Calif., U.S.A., and were cultured as near confluent monolayers in 100 mm culture plates within a maintenance media consisting of Complete MesenPro RS medium with growth supplement and L-glutamine obtained from Invitrogen®. The process of culturing, passage, and seeding the hADSCs is described below.
The subculture of hADSCs was performed when cell culture reached confluence. To passage hADSCs, the following procedure is used: i) aspirate the Complete MesenPRO RS medium from the cells; ii) rinse the surface area of the cell layer with Dulbecco's phosphate buffered saline (DBPS) buffer by adding the DPBS to the side of the vessel opposite the attached cell layer and rocking the vessel back and forth several times; iii) remove the DPBS by aspiration and discard; iv) detach the cells by adding a sufficient volume of pre-warmed trypsin-EDTA solution without phenol red to cover the cell layer; v) incubate at 37° C. for approximately 7 minutes; vi) observe the cells under a microscope to determine if additional incubation is needed; vii) add 3 mL of the maintenance media to the plate, mix the cell suspension, add the suspension to a 15 mL centrifuge tube and centrifuge at 210 g for 5 minutes; viii) determine the total number of cells and percent viability using a hemacytometer; ix) add Complete MesenPRO RS medium to each vessel so that the final culture volume is 0.2 mL-0.5 mL per cm^2; x) seed the cells by adding the appropriate volume of cells to each vessel and incubate at 37° C., 5% CO2 and 90% humidity; and xi) three or four days after seeding, completely remove the medium and replace with an equal volume of Complete MesenPRO RS medium.
Before seeding the passaged hADSCs on fresh culture plates, the surfaces of the culture ware are washed with sterile DPBS solution three times, followed by multiple rinses with sterile water. The first layer of coating is poly-L-ornithine. The coating is prepared by adding about 15 to about 20 µg/mL of poly-L-ornithine and incubating at 37° C. for one hour. The plate is washed three times with DPBS, 15 minutes per wash. The second layer of coating is bovine plasma fibronectin. The fibronectin is diluted in DPBS from stock to 1:1000 and 500 μL is added to each well. The plate is left at room temperature for one hour. One final wash with 500 μL per well of DPBS is performed and the plate is used immediately.
The cells were then subjected to removal and reseeded at a density of 2×10^4 cells/ml (1×10^4 cells/well) onto 24-well culture plates that contained a poly-L-ornithine and bovine plasma fibronectin coating.
Three days after seeding and priming; the culture medium was changed into neuronal differentiation medium. […]

Which results are given for `O=C(O)CCCCC1CCSS1` (stereo not drawn) [ALA, Alpha-lipoic acid]?
neurite outgrowth compared with DHA (ALA 5 μg/ml vs DHA 20 μM, FIG. 2C vs FIG. 2B): robust ability to promote neurogenesis in terms of neurite outgrowth; neurogenesis (neuronal morphology displayed by the hADSCs) (ALA at 5 μg/ml, phase contrast microscopy at 3 hours and 24 hours, vs negative control (no treatment), FIG. 2C): strong effect to enhance neurogenesis; cell death (cellular toxicity) as compared to DHA (wells treated with ALA 5 μg/ml vs DHA 20 μM, hADSCs): less cell death overall

Which “neuronal morphology of hADSCs” value (DHA at 20 μM (positive control), vs negative control, FIG. 2B) does the source give for `CC/C=C\C/C=C\C/C=C\C/C=C\C/C=C\C/C=C\CCC(=O)O` [DHA, docosahexanoic acid, reference compound] here?
The value was “enhanced neuronal morphology of hADSCs”.
